The record followed here is US12357711B2, “PSMA binding dual mode radiotracer and therapeutic” (Technische Universität München, priority 2019, dated 2025).

Data set [1] concerns the target T1, PSMA (Homo sapiens, UniProt Q04609).
T1 construct: endogenous in cells; host or cells: LNCaP cells
The data set can be described thus: Determination of IC50: PSMA affinity, competitive binding on LNCaP cells against ([125I]I-BA)KuE. The settings on record: LNCaP cells, [125I]IB-KuE c=0.2 nM, 1 h, 4° C. How it is done: Data are expressed as mean±SD (n=3, in 3 different experiments).
After removal of the culture medium, the cells were treated once with 500 μL of HBSS (Hank's balanced salt solution, Biochrom, Berlin, Germany, with addition of 1% bovine serum albumin (BSA)) and left 15 min on ice for equilibration in 200 μL HBSS (1% BSA). […] Quantification of bound and free radioligand was accomplished in a γ-counter.

Data set [2] has as its system LNCaP tumor bearing mouse. Briefly: Radio-TLC analysis of intact tracer and 18F-fluoride in blood, organ and urine samples, 30 min p.i. Format: in vivo, mice. On the procedure:
For radio-thin-layer chromatography, aluminum sheets coated with silica gel 60 RP-18 F254s were used with a mobile phase consisting of a 3:2 mixture (v/v) of MeCN in H2O supplemented with 10% of 2 M aqueous NaOAc and 1% of TFA. Analysis was performed using either a Scan-RAM radio-TLC detector (LabLogic Systems Ltd., Sheffield, United Kingdom) or a CR 35 BIO phosphorimager (Duerr Medical GmbH, Bietigheim-Bissingen, Germany).
In order to quantify the relative uptake of each isomer (rhPSMA-7.1-7.4), a tumor-bearing male CB-17-SCID mouse was injected with the racemic mixture of rhPSMA-7 (180-280 MBq, SA=247-349 GBq/μmol, produced at the Klinikum rechts der Isar in a fully automated procedure). The animal was left under anesthesia for 30 min and sacrificed. Urine, blood, liver, kidneys and tumor were collected and processed to the hereafter described procedures. The urine sample was centrifuged for 5 min at 9000 rpm to yield a clear solution and directly subjected to radio-HPLC analysis. Blood was diluted to 1 mL with H2O and centrifuged twice at 13000 g for 5 min. The supernatant was collected and loaded on a Strata X cartridge (33 μm Polymeric Reversed Phase 500 mg, pre-conditioned with 5 mL MeOH, followed by 5 mL H2O). After washing with 5 mL H2O, the cartridge was eluted with a 6:4 mixture (v/v) of MeCN in H2O, supplemented with 1% TFA. The eluate was diluted with water and analysed by radio-HPLC. Tumour, kidneys and liver were homogenised using either a Potter-Elvehjem tissue grinder (Kontes Glass Co, Vineland, USA) or a MM-400 ball mill (Retsch GmbH, Haan, Germany).
The organs (tumour, kidney, liver) were separately homogenised in a 2 mL tube together with 3 grinding balls (3 mm diameter) and 1 mL of extraction buffer (850 μL 1 M HEPES pH7.4, 100 μL 20 mM PMPA and 100 μL 1M NaCl) for 10 min at 30 Hz. The homogenate was centrifuged at 13000 g for 5 min and the supernatant was collected. Subsequently, the pellet was suspended in 1 mL of extraction buffer and homogenized again with the ball mill for 10 min at 30 Hz. After centrifugation (13000 g, 5 min), both supernatants were combined and loaded on a Strata X cartridge (33 μm Polymeric Reversed Phase 500 mg, pre-conditioned with 5 mL MeOH, followed by 5 mL H2O). After washing with 5 mL H2O, the cartridge was eluted with a 6:4 mixture (v/v) of MeCN in H2O, supplemented with 1% TFA. The eluate of each organ was diluted with water and analysed by radio-HPLC.
Radio-TLC Analysis was carried out a) on urine samples by directly subjecting a small volume onto a TLC strip, b) by analysis of a small volume of the non-immobilized activity during the SPE process (the ‘breakthrough fraction’), and c) by analysis of a small volume of the cartridge eluates.
Since none of the reagents and salts normally used for protein precipitation are tested for cold fluoride and to avoid possible liberation of F-18-fluoride from the tracer by isotopic exchange, protein precipitation was not implemented in the sample preparation process—although such protein load often result in limited peak separation, peak tailing and activity that sticks at the start line. The solutions obtained after tissue extraction (or blood centrifugation) were directly used for TLC analysis.

Setting [3] is: Phosphoimager, listed as [^18F]rhPSMA7-rac.
Setting [4] is: TLC Scanner, listed as [^18F]rhPSMA7-rac.

Where “and” joins values, the source holds several entries; their conditions need not be identical. Equal values may be shown once. Read-outs that look alike come from different tables or passages of the source. Marks after values point to notes of the source that are not given here.

T1 sequence (Q04609 whole entry): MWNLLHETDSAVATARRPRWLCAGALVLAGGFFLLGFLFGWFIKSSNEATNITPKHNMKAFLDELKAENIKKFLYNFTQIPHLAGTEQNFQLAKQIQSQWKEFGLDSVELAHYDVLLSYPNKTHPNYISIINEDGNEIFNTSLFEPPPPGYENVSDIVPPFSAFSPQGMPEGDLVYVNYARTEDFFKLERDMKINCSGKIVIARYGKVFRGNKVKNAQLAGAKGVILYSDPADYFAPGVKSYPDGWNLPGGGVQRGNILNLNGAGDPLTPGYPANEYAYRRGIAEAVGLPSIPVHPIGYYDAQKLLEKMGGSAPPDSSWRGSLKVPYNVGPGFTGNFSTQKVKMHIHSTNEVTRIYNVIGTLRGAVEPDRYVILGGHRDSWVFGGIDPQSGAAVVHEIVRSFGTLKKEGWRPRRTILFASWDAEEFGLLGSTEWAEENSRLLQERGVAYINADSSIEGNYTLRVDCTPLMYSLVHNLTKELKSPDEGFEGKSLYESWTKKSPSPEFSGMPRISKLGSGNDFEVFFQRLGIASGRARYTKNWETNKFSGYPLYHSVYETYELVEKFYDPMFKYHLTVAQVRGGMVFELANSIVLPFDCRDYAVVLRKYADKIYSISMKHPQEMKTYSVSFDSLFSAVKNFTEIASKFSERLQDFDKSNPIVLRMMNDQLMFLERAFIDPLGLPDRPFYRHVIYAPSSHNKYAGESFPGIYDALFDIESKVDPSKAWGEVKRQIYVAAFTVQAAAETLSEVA

As for `CC(C)(C)[Si](F)(c1ccc(C(=O)NC[C@@H](NC(=O)CC[C@@H](C(=O)O)N2CCN(CC(=O)[O-])CCN(CC(=O)[O-])CCN(CC(=O)[O-])CC2)C(=O)N[C@H](CCCCNC(=O)CCC(=O)NCCC[C@@H](NC(=O)CC[C@H](NC(=O)N[C@@H](CCC(=O)O)C(=O)O)C(=O)O)C(=O)O)C(=O)O)cc1)C(C)(C)C.[Ga+3]` [rhPSMA7.3, [^19F][^natGa]D-Dap-S-DOTAGA-rhPSMA7], the half-maximal inhibitory concentration (IC50) in data set [1] (HBSS+1% BSA, single measurements, read-out: individual IC50 measurements) is 3.17 nM and 2.91 nM and 5.35 nM and 5.74 nM and 4.59 nM and 4.45 nM; in data set [1] (mean of individual measurements, read-out: IC50 Mean), 4.37 nM.
In the case of “[^19F][^natGa]D/L-Dap-R/S-DOTAGA-rhPSMA7 [rhPSMA7-rac]”, in data set [2] (Phosphoimager), the “Intact tracer, Blood” value came out at 96.80%; the “Intact tracer, Kidney” value was 96.48%; the “Intact tracer, Tumor” value turned out to be 96.47%; the “^18F-Fluoride, Blood” value came to 3.20%. In data set [2] (Phosphoimager), the “^18F-Fluoride, Kidney” value was determined as 3.52% and the “^18F-Fluoride, Tumor” value worked out at 4.15%. In data set [2] (setting [3]), the “Intact tracer, Liver” value was 93.92^# % and 74.15^# %; the “Intact tracer, Urine” value is 98.55% and 95.85%; the “^18F-Fluoride, Urine” value was 1.55% and 4.15%. Further, in data set [2] (setting [4]), the “Intact tracer, Kidney” value was 94.04% and 94.58%; the “Intact tracer, Urine” value is 82.51% and 96.2%; the “^18F-Fluoride, Kidney” value was 5.96% and 5.42%.

A word on the IC50: it is the concentration that gives 50% inhibition.
